Laboratory results from patent US20110257146A1, “Method of Treating Kcnq Related Disorders Using Organozinc Compounds” (The johns Hopkins University, priority 2006, published 2011).
“Also recorded” adds a separate entry of the source.

Assays:
Assay type in all cases: cell-based
[1] = biological target: T1, KCNQ5 (Homo sapiens, UniProt Q9NR82); experiment: Whole-cell voltage clamp of CHO cells expressing KCNQ5; details: 10 μM ZnPy, extracellular
T1 construct: expressed in transfected cells; host or cells: CHO cells
Experimental: (§1) Cell culture and transient transfection—Chinese Hamster Ovary (CHO) cells were grown in 50/50 DMEM/F12 (Cellgro) with 10% FBS (Gibco), 100 U/ml penicillin (Cellgro), 100 μg/ml streptomycin (Cellgro) and 2 mM L-glutamine (Gibco). At 24 hours before transfection, cells were split and plated in 60 mm dishes and were transfected with Lipofectamine2000™ reagent (Invitrogen) according to the manufacturer's instruction. At 24 hours after transfection, cells were split and re-plated onto coverslips coated with poly-L-lysine (Sigma). Plasmid expressing CD4 cDNA as a marker was cotransfected with the channel cDNAs of hKCNQ1 (from Dr. Michael Sanguinetti), hKCNQ4 (from Dr. Vitya Vardanyan), rKCNQ2, rKCNQ3, and hKCNQ5 (from Drs. David McKinnon, Mark Shapiro, and Thomas Jentsch). Prior to recording, anti-CD4 Dynabeads (Dynal. Biotech. Inc.) were added into the medium to allow for identification of the transfected cells. Stable lines expressing Kv2.1, hERG, and Kv4.2 were generated by standard protocols using pcDNA3.1 and maintained at complete medium supplemented with 500 μg/ml G418. […]
(§2) Electrophysiological Recording—Standard whole-cell recording was used. […] Current and voltage were recorded using an Axopatch-200A amplifier, filtered at 1 kHz and digitized using a DigiData 1322A with pClamp 9.2 software (Axon Instruments, Foster City, Calif.). […]

[2] = biological target: T2, KCNQ3 (Rattus norvegicus, UniProt O88944); experiment: Whole-cell voltage clamp of CHO cells expressing KCNQ3; details: 10 μM ZnPy
T2 construct: expressed in transfected cells; host or cells: CHO cells
Experimental: as §1, with “cells.” for “cells. Stable lines expressing Kv2.1, hERG, and Kv4.2 were generated by standard protocols using pcDNA3.1 and maintained at complete medium supplemented with 500 μg/ml G418.”
as §2
Data and Statistical Analysis—Patch-clamp data were preprocessed using Clampfit 9.2 (Axon Instruments, Foster City, Calif.) and then analyzed in Origin 7 (OriginLab, Northampton, Mass.). […]

[3] = biological target: T3, KCNQ1 (Homo sapiens, UniProt P51787); experiment: Whole-cell voltage clamp of CHO cells expressing KCNQ1; details: 10 μM ZnPy, extracellular
T3 construct: expressed in transfected cells; host or cells: CHO cells
Experimental: as §1, §2

[4] = biological target: T4, KCNQ2(A306T) (Rattus norvegicus, UniProt O88943, A306T); experiment: Whole-cell recording of KCNQ2(A306T) mutant in CHO cells
T4 construct: expressed in transfected cells; host or cells: CHO cells
Experimental: FIG. 9. KCNQ2 point mutants selectively lose ZnPy sensitivity. […] Each mutation site was indicated based on the predicted transmembrane regions. Dashed line indicates the potentiation level of wt KCNQ2 channel in the absence of ZnPy. […] C. Modeling of the S5-pore-S6 region of KCNQ2.
(§3) FIG. 11. ZnPy effects on BFNC mutant channels expressed in CHO cells. A. whole-cell currents of KCNQ2(R207W), KCNQ2(Y284C), and KCNQ2(A306T) were recorded in the absence (left) and presence (right) of 10 μM ZnPy, Vh was −80 mV, in 10 mV voltage steps from −70 mV to +50 mV. B. a histogram plotting potentiation effects on KCNQ2 wild type (wt) and BFNC mutants (R207W, Y284C and […]) by ZnPy (filled box) and retigabine (open box) (n≧4, * p<0.001, ** p<0.05).
(§4) Mutagenesis—Starting from KCNQ cDNAs, the KCNQ2 point mutants were constructed by recombinant PCR and verified by sequencing.
(§5) Electrophysiological Recording—Standard whole-cell recording was used. Pipettes were pulled from borosilicate glass capillaries (TW150-4, World Precision Instruments, Sarasota, Fla.). When filled with the intracellular solution, the pipettes have resistances of […]. During the recording, constant perfusion of extracellular solution was maintained using a BPS perfusion system (ALA, Westbury, N.Y.). Pipette solution contained (mM): KCl 145, MgCl2 1, EGTA 5, HEPES 10, MgATP 5 (pH 7.3); extracellular solution contained (mM): NaCl 140, KCl 3, CaCl2 2, MgCl2 1.5, HEPES 10, glucose 10 (pH 7.4). Current and voltage were recorded using an Axopatch-200A amplifier, filtered at 1 kHz and digitized using a DigiData 1322A with pClamp 9.2 software (Axon Instruments, Foster City, Calif.). Series resistance compensation was also used and set to 60-80%.

[5] = biological target: T5, Kv2.1 delay rectifier voltage-gated potassium channel (Homo sapiens, UniProt Q14721); experiment: Channel activity in Kv2.1 stable line
T5 construct: expressed in transfected cells
Experimental: as §1, §2

[6] = biological target: T6, KCNQ2(Y284C) (Rattus norvegicus, UniProt O88943, Y284C); experiment: Whole-cell recording of KCNQ2(Y284C) BFNC mutant in CHO cells; details: 10 μM ZnPy
T6 construct: expressed in transfected cells; host or cells: CHO cells, transient
Experimental: as §3, §4
as §5, with “Series resistance compensation was also used and set to 60-80%.” left out

[7] = biological target: T7, KCNQ2(R207W) (Rattus norvegicus, UniProt O88943, R207W); experiment: Whole-cell recording of KCNQ2(R207W) BFNC mutant in CHO cells; details: 10 μM ZnPy
T7 construct: expressed in transfected cells; host or cells: CHO cells, transient
Experimental: as §3, §4
as §5, with “Series resistance compensation was also used and set to 60-80%.” left out

[8] = biological target: T8, KCNQ2 (W236L) (Rattus norvegicus, UniProt O88943, W236L); experiment: Whole-cell recording of KCNQ2 (W236L) mutant; details: 2.5 μM ZnPy, −30 mV or +50 mV
T8 construct: expressed in transfected cells
Experimental: FIG. 8. Differential modulatory sites on KCNQ channel by ZnPy and retigabine. A. Left Panel. Representative KCNQ2 current was recorded with intracellular pipet solution supplemented with 10 μM ZnPy. The overlapping external application of ZnPy is as shown. Right Panel. G-V curves at different indicated recording times (0 to 12 minutes) upon establishing stable seal are shown. The intracellular perfusion (with or without EGTA) was first calibrated by using compatible molecular weight dye. […] The levels of current potentiation at +50 mV and −30 mV were calculated by Idrug/Icontrol, and shown as indicated (n≧4, *p<0.001).
as §4
as §5, with “Pipette solution contained (mM): KCl 145, MgCl2 1, EGTA 5, HEPES 10, MgATP 5 (pH 7.3); extracellular solution contained (mM): NaCl 140, KCl 3, CaCl2 2, MgCl2 1.5, HEPES 10, glucose 10 (pH 7.4).” left out, “Series resistance compensation was also used and set to 60-80%.” left out

T5 sequence (Q14721 whole entry): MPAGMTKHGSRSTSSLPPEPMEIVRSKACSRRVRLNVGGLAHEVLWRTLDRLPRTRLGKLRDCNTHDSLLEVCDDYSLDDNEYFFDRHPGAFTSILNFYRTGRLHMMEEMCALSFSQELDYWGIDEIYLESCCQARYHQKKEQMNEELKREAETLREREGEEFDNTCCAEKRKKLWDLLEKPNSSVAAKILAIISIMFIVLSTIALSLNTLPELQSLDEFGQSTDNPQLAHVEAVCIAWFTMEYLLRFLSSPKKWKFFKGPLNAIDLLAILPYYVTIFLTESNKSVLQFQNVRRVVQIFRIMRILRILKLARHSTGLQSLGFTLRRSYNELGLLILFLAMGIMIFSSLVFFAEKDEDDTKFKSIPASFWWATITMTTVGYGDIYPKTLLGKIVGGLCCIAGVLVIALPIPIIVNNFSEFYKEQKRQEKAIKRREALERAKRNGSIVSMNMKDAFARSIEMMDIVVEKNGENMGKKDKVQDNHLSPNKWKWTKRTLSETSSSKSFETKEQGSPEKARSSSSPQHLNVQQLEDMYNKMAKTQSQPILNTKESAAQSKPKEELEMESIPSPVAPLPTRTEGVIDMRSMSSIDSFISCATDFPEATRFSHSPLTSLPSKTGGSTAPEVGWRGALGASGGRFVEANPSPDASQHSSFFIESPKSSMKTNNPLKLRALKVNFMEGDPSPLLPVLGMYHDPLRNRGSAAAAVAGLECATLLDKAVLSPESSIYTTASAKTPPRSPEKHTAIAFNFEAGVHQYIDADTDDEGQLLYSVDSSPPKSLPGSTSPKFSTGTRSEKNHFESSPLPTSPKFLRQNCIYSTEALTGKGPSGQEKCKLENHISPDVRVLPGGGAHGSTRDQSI

Q: With `S=c1ccccn1[O][Zn][O]n1ccccc1=S` [ZnPy, Zinc Pyrithione] as the compound, how does the “effect on channel activity” value [1] read?
A: became conductive upon ZnPy treatment

Q: What about the “change of V1/2” value [2] of the same compound?
A: no change on V1/2

Q: What about the current potentiation ([2]; extracellular) of the same compound?
A: did not show any current potentiation; also recorded: has no effect on KCNQ3

Q: What about the “effect on channel activity” value [3] of the same compound?
A: potentiated; also recorded: potentiates KCNQ1

Q: What about the “effectiveness of current increase” value ([4]; 10 μM ZnPy) of the same compound?
A: less effective

Q: And the “hyperpolarizing shift of V1/2” value ([4]; ZnPy)?
A: 24.1±3.1 mV

Q: And the “potentiation in Gmax” value ([4]; ZnPy)?
A: little potentiation in Gmax

Q: What about the “potentiation of channel activity” value [5] of the same compound?
A: did not potentiate

Q: What about the fold current increase [6] of the same compound?
A: more than 3 fold

Q: What about the fold current increase [7] of the same compound?
A: more than 3 fold

Q: What about the “sensitivity of mutant to compound” value [8] of the same compound?
A: comparable sensitivity to KCNQ2 wild type; also recorded: fully effective in potentiating
